Results published in article PMC10823733, “Promising antibacterial efficacy of arenicin peptides against the emerging opportunistic pathogen Mycobacterium abscessus” (Journal of Biomedical Science, 2024).
Where two headings read alike, the source gives them in different places. Positions of bridges follow the written chain, without caps; N, C: chain ends. Non-standard residues stand in square brackets, D forms with d. Residues, ends and D or L forms follow the SMILES beside them. Abu = CC[C@H](N)C(=O)O

Columns and labels:
[1] = test system: M. abscessus CIP 104536 T R variant; assay: microbe, parasite or virus in culture; format: cell-based, Mycobacterium abscessus
Procedure: (§1) Mycobacterium abscessus S and R strains (CIP 104536^ T) were grown in Middlebrook 7H9 medium supplemented with 0.05% (v/v) Tween 80, 0.2% (v/v) glycerol and 10% (v/v) oleic acid–albumin–dextrose–catalase (OADC enrichment; BD Difco) (7H9-S^OADC) at 37 °C under stirring (200 rpm). We used Ar-1 (RWC^3VYAYVRVRGVLVRYRRC^20W) and Ar-1-Abu, in which the cysteines in position 3 and 20 were replaced by alpha-amino-n-butyric acid (Abu) residues. We also tested Ar-2 (RWC^3VYAYVRIRGVLVRYRRC^20W), Ar-2-Abu (cysteines 3 and 20 replaced), Ar-3 (GFC^3WYVC^7VYRNGVRVC^16YRRC^20N), Ar-3-Abu (all four cysteines were replaced by Abu), Ar-3(3–20) (cysteines 7 and 16 replaced), and Ar-3(7–16) (cysteines 3 and 20 replaced). All arenicins and arenicin-Abu derivatives were obtained from GenScript (Piscataway, NJ, USA) with purity higher than 95%.
(§2) For determining the antimicrobial activity of the different peptides, the Middlebrook 7H9 broth microdilution method was used in sterile 96-well flat-bottom Greiner Bio-One polypropylene microplates with lid (Thermo Fisher Scientific) using the resazurin microtiter assay (REMA). Briefly, Mycobacterium abscessus was cultured up to mid log-phase (OD600 ~ 1.5–2) and diluted to a cell density of 5 × 10^6 cells/mL in 7H9-S^OADC. Then, 100 µL of this above inoculum was distributed to each well containing serial two-fold dilutions of arenicin, arenicin derivative or controls to a final volume of 200 µL. Growth controls containing no peptide (i.e., bacteria only = B), inhibition controls containing 50 µg/mL kanamycin (Euromedex, Souffelweyersheim, France) and sterility controls (i.e., medium only) without bacteria were included. After 5 days incubation at 37° C in a humidity chamber to prevent evaporation, 20 µL of a 0.025% (w/v) resazurin solution was added to each well. The microplate was re-incubated until appearance of a color change from blue to pink in the control well (i.e., bacteria without antibiotics). Fluorescence of the metabolite resorufin (λex/λem = 530/590 nm) was measured using a Tecan Spark 10 M ™ multimode microplate reader (Tecan Group Ltd, France). Relative fluorescence units (RFU) were defined as: RFU% = (test well FU/mean FU of control B wells) × 100. MIC50 and MIC90 values were determined by fitting the RFU% sigmoidal dose–response curves in Kaleidagraph 4.2 software (Synergy Software, Reading, PA). The concentration of peptide leading to 50% and 90% inhibition of M. abscessus growth was defined as the MIC50 and MIC90, respectively. All experiments were performed independently at least three times.

[2] = test system: M. abscessus CIP 104536 T S variant; assay: microbe, parasite or virus in culture; format: cell-based, Mycobacterium abscessus
Procedure: as §1, §2

[3] = format: cell-based, human
Procedure: (§3) The toxicity of each peptide was evaluated on human cell lines using a resazurin assay as previously described. Human lung epithelial cells BEAS-2B (ATCC CRL-9609), liver cells HepG2 (ATCC HB-8065), and kidney cells A498 (ATCC HTB-44) were used. All cells were cultured in Dulbecco's modified essential medium (DMEM) supplemented with 10% heat-inactivated fetal calf serum (FBS, Thermo Fisher Scientific), and 1% L-glutamine (Thermo Fisher Scientific) (DMEM^FBS) at 37 °C in a 5% CO2 incubator to subconfluent concentrations. Cells were detached with trypsin–EDTA solution (Thermo Fisher Scientific), and around 1 × 10^4 cells/well were seeded in 96-well flat-bottom microplates (Greiner Bio-One) with a lid, and cultured for additional 48–72 h at 37 °C and 5% CO2 until cell confluence. The medium was removed, and 100 µL of serial two-fold dilutions of the peptides in DMEM^FBS were added to each well. Following a 48 h-incubation period at 37 °C and 5% CO2, cell viability was evaluated using the resazurin assay as described above. Fluorescence of the resazurin metabolite resorufin (λex/λem = 530/590 nm) was measured after 2 h incubation at 37 °C and 5% CO2 in the dark, with a microplate reader (Biotek, Synergy Mx, Colmar, France). The cytotoxic concentration of peptide leading to 50% cell death as compared to the control was defined as the CC50, and was determined by fitting the RFU% sigmoidal dose–response curves in Kaleidagraph 4.2 software (Synergy Software). All experiments were conducted in triplicate.

[4] = format: cell-based, human; remark: listed apart in the source
Procedure: as §3

[5] = Cytotoxic assay on human cells (resazurin); format: cell-based; details: A498, 48 h exposure
Procedure: as §3

human erythrocytes = format: cell-based
Procedure: The hemolytic activity of each peptide was determined as previously described. Briefly, human erythrocytes (red blood cells, hRBC; Divbioscience, Ulvenhout, Netherlands) were washed 2-times with sterile phosphate buffered saline (PBS; Thermo Fisher Scientific) and pelleted by centrifugation at 800 rpm for 5 min; then resuspended in DMEM^FBS to a final erythrocyte concentration of 8% (v/v). Then, 100 µL of this hRBC solution was distributed to each well of sterile 96-well flat-bottom microplates (Greiner Bio-One) containing serial two-fold dilutions of arenicin, arenicin-Abu derivative or controls in DMEM^FBS to a final volume of 200 µL. After 1 h incubation at 37 °C, microplates were centrifuged at 800 rpm for 5 min. Then, 100 µL of supernatant were carefully transferred to a new 96-well microplate, and OD405 corresponding to the release of hemoglobin was measured using a microplate reader (Biotek, Synergy Mx, Colmar, France). DMEM^FBS and Triton-X100 at 0.1% (v/v) were used as negative (i.e., 0% hemolysis) and positive (i.e., 100% hemolysis) controls, respectively. The concentration of peptide leading to 10% and 50% of hemolysis compared to the positive control was defined as the HC10 and HC50, respectively, and was determined by fitting the dose–response curves in Kaleidagraph 4.2 software (Synergy Software). All experiments were done in triplicate.

[6] = Mycobacteroides abscessus, CIP104536, 120 h
[7] = S variant, 50% inhibition of in vitro growth, REMA, 5 days
[8] = S variant, 90% inhibition of in vitro growth, REMA, 5 days

| Compound | MIC50 [1, 6] [µM] | MIC90 [1, 6] [µM] | MIC50 [2, 6] [µM] | MIC90 [2, 6] [µM] | CC50 [3] [µM] | CC50 [4] [µM] | CC50 [5] [µM] | HC10 (human erythrocytes; red cells of human, 1 h) [µM] | HC50 (human erythrocytes; red cells of human, 1 h) [µM] | HC50 (human erythrocytes) [µM] | MIC50 [2, 7] [µM] | MIC90 [2, 8] [µM] | hemolytic activity on human erythrocytes (in words, considering HC10) (human erythrocytes) | MIC50 ([1]; R variant, 50% inhibition of in vitro growth, REMA, 5 days) [µM] | MIC90 ([1]; R variant, 90% inhibition of in vitro growth, REMA, 5 days) [µM] |
| --- | --- | --- | --- | --- | --- | --- | --- | --- | --- | --- | --- | --- | --- | --- | --- |
| NCC[C@H](O)C(=O)N[C@@H]1C[C@H](N)[C@@H](O[C@H]2O[C@H](CN)[C@@H](O)[C@H](O)[C@H]2O)[C@H](O)[C@H]1O[C@H]1O[C@H](CO)[C@@H](O)[C@H](N)[C@H]1O [AMK, amikacin, reference compound] | 7.4 ± 0.26 | 10.1 | 3.9 ± 0.19 | 5.8 |  |  |  |  |  |  |  |  |  |  |  |
| CC[C@H](NC(=O)[C@H](CCCNC(=N)N)NC(=O)[C@H](CCCNC(=N)N)NC(=O)[C@H](Cc1ccc(O)cc1)NC(=O)[C@H](CCCNC(=N)N)NC(=O)[C@@H](NC(=O)[C@H](CC(C)C)NC(=O)[C@@H](NC(=O)CNC(=O)[C@H](CCCNC(=N)N)NC(=O)[C@@H](NC(=O)[C@H](CCCNC(=N)N)NC(=O)[C@@H](NC(=O)[C@H](Cc1ccc(O)cc1)NC(=O)[C@H](C)NC(=O)[C@H](Cc1ccc(O)cc1)NC(=O)[C@@H](NC(=O)[C@H](CC)NC(=O)[C@H](Cc1c[nH]c2ccccc12)NC(=O)[C@@H](N)CCCNC(=N)N)C(C)C)C(C)C)[C@@H](C)CC)C(C)C)C(C)C)C(=O)N[C@@H](Cc1c[nH]c2ccccc12)C(=O)O [Ar-2-Abu] (H-RW[Abu]VYAYVRIRGVLVRYRR[Abu]W-OH) |  |  |  |  | > 100 | > 100 | 92.1 ± 2.3 | 15.4 ± 1.0 | > 100 |  |  |  |  |  |  |
| CC[C@H](C)[C@@H]1NC(=O)[C@H](CCCNC(=N)N)NC(=O)[C@H](C(C)C)NC(=O)[C@H](Cc2ccc(O)cc2)NC(=O)[C@H](C)NC(=O)[C@H](Cc2ccc(O)cc2)NC(=O)[C@H](C(C)C)NC(=O)[C@@H](NC(=O)[C@H](Cc2c[nH]c3ccccc23)NC(=O)[C@@H](N)CCCNC(=N)N)CSSC[C@@H](C(=O)N[C@@H](Cc2c[nH]c3ccccc23)C(=O)O)NC(=O)[C@H](CCCNC(=N)N)NC(=O)[C@H](CCCNC(=N)N)NC(=O)[C@H](Cc2ccc(O)cc2)NC(=O)[C@H](CCCNC(=N)N)NC(=O)[C@H](C(C)C)NC(=O)[C@H](CC(C)C)NC(=O)[C@H](C(C)C)NC(=O)CNC(=O)[C@H](CCCNC(=N)N)NC1=O [Ar-2] (H-RWCVYAYVRIRGVLVRYRRCW-OH; disulfide 3-20) |  |  |  |  | > 100 | > 100 | 37.7 ± 1.1 | 4.9 ± 0.7 |  | 29.2 |  |  |  |  |  |
| CC[C@@H]1NC(=O)[C@H](C(C)C)NC(=O)[C@H](CCCNC(=N)N)NC(=O)[C@H](C(C)C)NC(=O)CNC(=O)[C@H](CC(N)=O)NC(=O)[C@H](CCCNC(=N)N)NC(=O)[C@H](Cc2ccc(O)cc2)NC(=O)[C@H](C(C)C)NC(=O)[C@H](CC)NC(=O)[C@H](C(C)C)NC(=O)[C@H](Cc2ccc(O)cc2)NC(=O)[C@H](Cc2c[nH]c3ccccc23)NC(=O)[C@@H](NC(=O)[C@H](Cc2ccccc2)NC(=O)CN)CSSC[C@@H](C(=O)N[C@@H](CC(N)=O)C(=O)O)NC(=O)[C@H](CCCNC(=N)N)NC(=O)[C@H](CCCNC(=N)N)NC(=O)[C@H](Cc2ccc(O)cc2)NC1=O [Ar-3(3–20)] (H-GFCWYV[Abu]VYRNGVRV[Abu]YRRCN-OH; disulfide 3-20) |  |  |  |  | > 100 | > 100 | 42 ± 1.3 | > 100 | > 100 |  | 48.3 | > 100 | totally inactive |  |  |
| CC[C@H](NC(=O)[C@H](CCCNC(=N)N)NC(=O)[C@H](CCCNC(=N)N)NC(=O)[C@H](Cc1ccc(O)cc1)NC(=O)[C@@H]1CSSC[C@H](NC(=O)[C@@H](NC(=O)[C@H](Cc2ccc(O)cc2)NC(=O)[C@H](Cc2c[nH]c3ccccc23)NC(=O)[C@H](CC)NC(=O)[C@H](Cc2ccccc2)NC(=O)CN)C(C)C)C(=O)N[C@@H](C(C)C)C(=O)N[C@@H](Cc2ccc(O)cc2)C(=O)N[C@@H](CCCNC(=N)N)C(=O)N[C@@H](CC(N)=O)C(=O)NCC(=O)N[C@@H](C(C)C)C(=O)N[C@@H](CCCNC(=N)N)C(=O)N[C@@H](C(C)C)C(=O)N1)C(=O)N[C@@H](CC(N)=O)C(=O)O [Ar-3(7–16)] (H-GF[Abu]WYVCVYRNGVRVCYRR[Abu]N-OH; disulfide 7-16) |  |  |  |  | > 100 | > 100 | 37.7 ± 1.2 | 41.1 ± 4.3 | > 100 |  |  |  |  |  |  |
| CC[C@H](NC(=O)[C@H](CCCNC(=N)N)NC(=O)[C@H](CCCNC(=N)N)NC(=O)[C@H](Cc1ccc(O)cc1)NC(=O)[C@H](CC)NC(=O)[C@@H](NC(=O)[C@H](CCCNC(=N)N)NC(=O)[C@@H](NC(=O)CNC(=O)[C@H](CC(N)=O)NC(=O)[C@H](CCCNC(=N)N)NC(=O)[C@H](Cc1ccc(O)cc1)NC(=O)[C@@H](NC(=O)[C@H](CC)NC(=O)[C@@H](NC(=O)[C@H](Cc1ccc(O)cc1)NC(=O)[C@H](Cc1c[nH]c2ccccc12)NC(=O)[C@H](CC)NC(=O)[C@H](Cc1ccccc1)NC(=O)CN)C(C)C)C(C)C)C(C)C)C(C)C)C(=O)N[C@@H](CC(N)=O)C(=O)O [Ar-3-Abu] (H-GF[Abu]WYV[Abu]VYRNGVRV[Abu]YRR[Abu]N-OH) |  |  |  |  | > 100 | > 100 | 36.6 ± 0.9 | 39.3 ± 3.2 | > 100 |  | > 100 | > 100 |  | > 100 | > 100 |
| CC(C)[C@@H]1NC(=O)CNC(=O)[C@H](CC(N)=O)NC(=O)[C@H](CCCNC(=N)N)NC(=O)[C@H](Cc2ccc(O)cc2)NC(=O)[C@H](C(C)C)NC(=O)[C@@H]2CSSC[C@H](NC(=O)[C@H](C(C)C)NC(=O)[C@H](CCCNC(=N)N)NC1=O)C(=O)N[C@@H](Cc1ccc(O)cc1)C(=O)N[C@@H](CCCNC(=N)N)C(=O)N[C@@H](CCCNC(=N)N)C(=O)N[C@H](C(=O)N[C@@H](CC(N)=O)C(=O)O)CSSC[C@H](NC(=O)[C@H](Cc1ccccc1)NC(=O)CN)C(=O)N[C@@H](Cc1c[nH]c3ccccc13)C(=O)N[C@@H](Cc1ccc(O)cc1)C(=O)N[C@@H](C(C)C)C(=O)N2 [Ar-3] (H-GFCWYVCVYRNGVRVCYRRCN-OH; disulfide 3-20, 7-16) |  |  |  |  | > 100 | > 100 | 46.7 ± 1.7 | 30.3 ± 2.5 | > 100 |  | 5.3 | 12.2 |  |  |  |
